Measured values taken from ChEMBL document CHEMBL1126962, “Antagonists of luteinising hormone-releasing hormone (LHRH). Progress towards non-peptide leads” (1993).

Columns and labels:
Assay type in all cases: functional
[1] = system: Rattus norvegicus; assay: Effective dose required to inhibit ovulation in normal cycling rats at a dose of 2 mg/kg
[2] = organism: Rattus norvegicus; assay: Effective dose required to inhibit ovulation in normal cycling rats
[3] = system: Rattus norvegicus; assay: Effective dose required to inhibit ovulation in normal cycling rats at 1 mg/kg

CC(C)C[C@@H]1NC(=O)[C@@H](CCCN=C(N)N)NC(=O)[C@@H]2CCC(=O)NCCCC[C@H](NC1=O)C(=O)N1CCC[C@H]1C(=O)N[C@H](C)C(=O)N[C@H](Cc1ccc(Cl)cc1)C(=O)N[C@H](Cc1ccc(Cl)cc1)C(=O)N[C@H](Cc1c[nH]c3ccccc13)C(=O)N[C@@H](CO)C(=O)N2
inhibition in vivo at 2 mg/kg [1]: 40%

CC(=O)N[C@H](Cc1ccc(Cl)cc1)C(=O)N[C@H](Cc1ccc(Cl)cc1)C(=O)N[C@H](Cc1c[nH]c2ccccc12)C(=O)N[C@@H](CO)C(=O)N[C@H]1CC(=O)NCCCC[C@@H](C(=O)N2CCC[C@H]2C(=O)N[C@H](C)C(N)=O)NC(=O)[C@H](CC(C)C)NC(=O)[C@@H](CCCN=C(N)N)NC1=O
ED50 [2]: 180 ug rat-1

CC(C)C[C@@H]1NC(=O)[C@@H](CCCN=C(N)N)NC(=O)[C@@H]2CCC(=O)NCCCC[C@H](NC1=O)C(=O)N1CCC[C@H]1C(=O)N(C)[C@H](C)C(=O)N[C@H](Cc1ccc(Cl)cc1)C(=O)N[C@H](Cc1ccc(Cl)cc1)C(=O)N[C@H](Cc1c[nH]c3ccccc13)C(=O)N[C@@H](CO)C(=O)N2
ED50 [3]: 200 ug rat-1
inhibition in vivo at 1 mg/kg [3]: 50%

CC(=O)N[C@H](Cc1ccc(Cl)cc1)C(=O)N[C@H](Cc1ccc(Cl)cc1)C(=O)N[C@H](Cc1c[nH]c2ccccc12)C(=O)N[C@@H](CO)C(=O)N[C@H]1CC(=O)NCCC[C@@H](C(=O)N2CCC[C@H]2C(=O)N[C@H](C)C(N)=O)NC(=O)[C@H](CC(C)C)NC(=O)[C@@H](CCCN=C(N)N)NC1=O
ED50 [2]: 540 ug rat-1

CC(=O)N[C@H](Cc1ccc(Cl)cc1)C(=O)N[C@H](Cc1ccc(Cl)cc1)C(=O)N[C@H](Cc1c[nH]c2ccccc12)C(=O)N[C@@H](CO)C(=O)N[C@H]1CCC(=O)NCCCC[C@@H](C(=O)N2CCC[C@H]2C(=O)N[C@H](C)C(N)=O)NC(=O)[C@H](CC(C)C)NC(=O)[C@@H](CCCN=C(N)N)NC1=O
ED50 [2]: 90 ug rat-1
